Where two headings read alike, the source gives them in different places.
How the values were obtained:
Format in all cases: cell-based
[1] = test system: human epidermoid carcinoma MDR cell line KBV200; experiment: Reversal of drug resistance of KBV200, MTT assay, 72 h; conditions: for IC50: Homo sapiens, read-out: IC50 Control; for RF (Schisandrin B): IC50 in the absence / IC50 in the presence of Schisandrin B (10 μg/ml); for RF (Schisandrin B) / RF (verapamil) / IC50 Schisandrin B / IC50 verapamil: KBV200; for RF (verapamil): IC50 in the absence / IC50 in the presence of verapamil (6 μg/ml); for IC50 Schisandrin B: anticancer drug in the presence of Schisandrin B (10 μg/ml); for IC50 verapamil: anticancer drug in the presence of verapamil (6 μg/ml)
Description: (§1) In this embodiment, the IC50 of anticancer drugs in the presence or absence of Schisandrin B toward MDR cells was determined.
(§2) MTT assays were carried out in triplicate against human leukemia MDR cell line K562/adr and human epidermoid carcinoma MDR cell line KBV200. MTT assays as described previously (X. Hu, et al., Chemotherapy 41:296-305 (1995)) were used to determine the cytotoxicity of each anticancer drug in the presence or absence of Schisandrin B or verapmil.
Cells were treated with specific anticancer drugs as set forth therein. […] “SchB” represents cells treated with anticancer drugs in the presence of Schisandrin B (10 μg/ml).

[2] = test system: human leukemia MDR cell line K562/adr; experiment: Reversal of drug resistance of K562/adr, MTT assay, 72 h; conditions: for IC50: Homo sapiens, read-out: IC50 Control; for RF (Schisandrin B): IC50 in the absence divided by IC50 in the presence of Schisandrin B (10 μg/ml); for RF (verapamil): IC50 in the absence divided by IC50 in the presence of verapamil (6 μg/ml); for IC50 Schisandrin B: anticancer drug in the presence of Schisandrin B (10 μg/ml); for IC50 verapamil: anticancer drug in the presence of verapamil (6 μg/ml)
Description: as §1, §2
Cells were treated with specific anticancer drugs as set forth therein. “Ctrl” represents control cells treated with anticancer drugs in the absence of Schisandrin B or verapamil. “SchB” represents cells treated with anticancer drugs in the presence of Schisandrin B (10 μg/ml).

K562/vcr = experiment: Reversal of drug resistance, MTT assay, 48 h; conditions: for IC50: Homo sapiens, read-out: IC50 Control; for IC50 / IC50 Schisandrin B: 48 h; for RF (Reversal Folds): IC50 in the absence of Schisandrin B divided by IC50 in the presence of Schisandrin B (10 μg/ml); for IC50 Schisandrin B: anticancer drug toward K562/vcr in the presence of Schisandrin B (10 μg/ml)
Description: To illustrate a method for reversal of drug resistance by application of Schisandrin B, cell lines K562/adr, K562/vcr (X. […] H. […] Cells were cultured in RPMI-1640 medium containing 10% fetal calf serum. […] The logarithmic growing cells were seeded into a 96 well plate (20,000 cells/well). Specific anticancer drugs (set forth in Table 1) and Schisandrin B in combination were added into the wells containing the select cell lines. […] Cell viability was assessed by MTT assays as described in X.

[3] = anticancer drug alone, KBV200, 72 h
[4] = anticancer drug alone, K562/adr, 72 h
[5] = anticancer drug toward K562/vcr in the absence of Schisandrin B

Question: What does the source list for `COc1cccc2c1C(=O)c1c(O)c3c(c(O)c1C2=O)C[C@@](O)(C(C)=O)C[C@@H]3O[C@H]1C[C@H](N)[C@H](O)[C@H](C)O1` [Daunorubicin, daunorubicin]?
Answer: IC50 ([1]; KBv200, 72 h): 0.305 ± 0.0728 µg/mL; RF (Schisandrin B) [1]: 3.34; RF (verapamil) [1]: 5.49; IC50 Schisandrin B [1]: 0.0913 ± 0.003 µg/mL; IC50 verapamil [1]: 0.0555 ± 0.0175 µg/mL; IC50 ([2]; K562/Adr, 72 h): 0.505 ± 0.0728 µg/mL; RF (Schisandrin B) ([2]; K562/adr): 5.16; RF (verapamil) ([2]; K562/adr): 6.38; IC50 Schisandrin B ([2]; K562/adr): 0.0977 ± 0.063 µg/mL; IC50 verapamil ([2]; K562/adr): 0.0791 ± 0.0313 µg/mL; IC50 (K562/vcr; K562/VCR): 0.45 ± 0.25 µg/mL; RF (Reversal Folds) (K562/vcr): 40.9; IC50 Schisandrin B (K562/vcr): 0.011 ± 0.0001 µg/mL

Question: Which results are given for `COc1cccc2c1C(=O)c1c(O)c3c(c(O)c1C2=O)C[C@@](O)(C(=O)CO)C[C@@H]3O[C@H]1C[C@H](N)[C@@H](O)[C@H](C)O1` [Epirubicin, epirubicin]?
Answer: IC50 [1, 3]: 0.988 ± 0.152 µg/mL; RF (Schisandrin B) [1]: 9.56; RF (verapamil) [1]: 8.06; IC50 Schisandrin B [1]: 0.1033 ± 0.0545 µg/mL; IC50 verapamil [1]: 0.1226 ± 0.082 µg/mL; IC50 [2, 4]: 1.32 ± 0.322 µg/mL; RF (Schisandrin B) ([2]; K562/adr): 4.35; RF (verapamil) ([2]; K562/adr): 5.95; IC50 Schisandrin B ([2]; K562/adr): 0.3033 ± 0.0812 µg/mL; IC50 verapamil ([2]; K562/adr): 0.2218 ± 0.0909 µg/mL; IC50 (K562/vcr; [5]): 2.56 ± 0.84 µg/mL; RF (Reversal Folds) (K562/vcr): 5.81; IC50 Schisandrin B (K562/vcr): 0.44 ± 0.14 µg/mL

Question: With `COC(=O)C[C@](O)(CCCC(C)(C)O)C(=O)O[C@@H]1C(OC)=C[C@]23CCCN2CCc2cc4c(cc2[C@H]13)OCO4` [Homoharringtonine] as the molecule, how does the IC50 [1, 3] read?
Answer: The IC50 was 0.526 ± 0.199 µg/mL.

Question: And the “RF (Schisandrin B)” value [1]?
Answer: The value was 4.94.

Question: What about the “RF (verapamil)” value [1] of the same molecule?
Answer: Its value is 4.74.

Question: What about the “IC50 Schisandrin B” value [1] of the same molecule?
Answer: The value was 0.1064 ± 0.0812 µg/mL.

Question: What about the IC50 verapamil [1] of the same molecule?
Answer: The IC50 verapamil was 0.1108 ± 0.0076 µg/mL.

Question: And the IC50 [2, 4]?
Answer: The IC50 was 0.428 ± 0.108 µg/mL.

Question: What about the “RF (Schisandrin B)” value ([2]; K562/adr) of the same molecule?
Answer: The value was 4.44.

Question: And the “RF (verapamil)” value ([2]; K562/adr)?
Answer: Its value is 6.1.

Question: And the “IC50 Schisandrin B” value ([2]; K562/adr)?
Answer: Its value is 0.0964 ± 0.0312 µg/mL.

Question: What about the IC50 verapamil ([2]; K562/adr) of the same molecule?
Answer: The IC50 verapamil was 0.0701 ± 0.0042 µg/mL.

Question: And the IC50 (K562/vcr; [5])?
Answer: Its IC50 is 0.55 ± 0.02 µg/mL.

Question: And the “RF (Reversal Folds)” value (K562/vcr)?
Answer: Its value is 11.

Question: What about the “IC50 Schisandrin B” value (K562/vcr) of the same molecule?
Answer: The value was 0.050 ± 0.01 µg/mL.

Question: What does the source list for `CC[C@@]1(O)C(=O)OCc2c1cc1n(c2=O)Cc2cc3cc(O)ccc3nc2-1` [Hydroxycamptothecine]?
Answer: RF (Schisandrin B) [1]: 3.07; RF (verapamil) [1]: 3.48; IC50 Control [1, 3]: 0.1618 ± 0.1501 µg/mL; IC50 Schisandrin B [1]: 0.0527 ± 0.0613 µg/mL; IC50 verapamil [1]: 0.0468 ± 0.0254 µg/mL; RF (Schisandrin B) ([2]; K562/adr): 8.84; RF (verapamil) ([2]; K562/adr): 8.53; IC50 Control [2, 4]: 0.3688 ± 0.0875 µg/mL; IC50 Schisandrin B ([2]; K562/adr): 0.0417 ± 0.062 µg/mL; IC50 verapamil ([2]; K562/adr): 0.0432 ± 0.0205 µg/mL

Question: What does the source list for `CN(Cc1cnc2nc(N)nc(N)c2n1)c1ccc(C(=O)N[C@@H](CCC(=O)O)C(=O)O)cc1` [Methotrexate, methotrexate]?
Answer: IC50 (K562/vcr; [5]): > 10 µg/mL; IC50 Schisandrin B (K562/vcr): >10 µg/mL

Question: How did the IC50 [1, 3] turn out when `O=C1c2c(O)ccc(O)c2C(=O)c2c(NCCNCCO)ccc(NCCNCCO)c21` [Mitoxantron, mitoxantron] was run?
Answer: The IC50 was 0.0906 ± 0.0456 µg/mL.

Question: And the “RF (Schisandrin B)” value [1]?
Answer: The value was >9.06.

Question: And the “RF (verapamil)” value [1]?
Answer: Its value is >9.06.

Question: And the “IC50 Schisandrin B” value [1]?
Answer: The value was <0.01 µg/mL.

Question: And the IC50 verapamil [1]?
Answer: The IC50 verapamil was <0.01 µg/mL.

Question: And the IC50 [2, 4]?
Answer: The IC50 was 0.105 ± 0.0356 µg/mL.

Question: What about the “RF (Schisandrin B)” value ([2]; K562/adr) of the same molecule?
Answer: The value was >10.52.

Question: And the “RF (verapamil)” value ([2]; K562/adr)?
Answer: The value was >10.52.

Question: And the “IC50 Schisandrin B” value ([2]; K562/adr)?
Answer: Its value is <0.01 µg/mL.

Question: And the IC50 verapamil ([2]; K562/adr)?
Answer: Its IC50 verapamil is <0.01 µg/mL.

Question: What about the IC50 (K562/vcr; [5]) of the same molecule?
Answer: Its IC50 is 0.79 ± 0.33 µg/mL.

Question: What about the “RF (Reversal Folds)” value (K562/vcr) of the same molecule?
Answer: Its value is 4.0.

Question: What about the “IC50 Schisandrin B” value (K562/vcr) of the same molecule?
Answer: Its value is 0.20 ± 0.06 µg/mL.

Question: Which IC50 [1, 3] does the source give for `CC(=O)O[C@H]1C(=O)[C@@]2(C)[C@H]([C@H](OC(=O)c3ccccc3)[C@]3(O)C[C@H](OC(=O)[C@H](O)[C@@H](NC(=O)c4ccccc4)c4ccccc4)C(C)=C1C3(C)C)[C@]1(OC(C)=O)CO[C@@H]1C[C@@H]2O` [Taxol, taxol] here?
Answer: Its IC50 is 0.089 ± 0.0079 µg/mL.

Question: What about the “RF (Schisandrin B)” value [1] of the same molecule?
Answer: Its value is 2.82.

Question: And the “RF (verapamil)” value [1]?
Answer: The value was 2.71.

Question: What about the “IC50 Schisandrin B” value [1] of the same molecule?
Answer: Its value is 0.0316 ± 0.0019 µg/mL.

Question: And the IC50 verapamil [1]?
Answer: The IC50 verapamil was 0.0329 ± 0.0079 µg/mL.

Question: What about the IC50 [2, 4] of the same molecule?
Answer: The IC50 was 0.342 ± 0.132 µg/mL.

Question: And the “RF (Schisandrin B)” value ([2]; K562/adr)?
Answer: The value was 17.89.

Question: What about the “RF (verapamil)” value ([2]; K562/adr) of the same molecule?
Answer: Its value is 23.94.

Question: What about the “IC50 Schisandrin B” value ([2]; K562/adr) of the same molecule?
Answer: The value was 0.01913 ± 0.0208 µg/mL.

Question: What about the IC50 verapamil ([2]; K562/adr) of the same molecule?
Answer: The IC50 verapamil was 0.0143 ± 0.0093 µg/mL.

Question: Which IC50 [1, 3] does the source give for `CC[C@]1(O)C[C@H]2CN(CCc3c([nH]c4ccccc34)[C@@](C(=O)OC)(c3cc4c(cc3OC)N(C=O)[C@H]3[C@@](O)(C(=O)OC)[C@H](OC(C)=O)[C@]5(CC)C=CCN6CC[C@]43[C@@H]65)C2)C1` [Vincristine, vincristine] here?
Answer: The IC50 was > 20 µg/mL.

Question: And the “RF (Schisandrin B)” value [1]?
Answer: The value was 127.2.

Question: And the “RF (verapamil)” value [1]?
Answer: The value was 20.26.

Question: And the “IC50 Schisandrin B” value [1]?
Answer: The value was 0.1572 ± 0.0946 µg/mL.

Question: What about the IC50 verapamil [1] of the same molecule?
Answer: Its IC50 verapamil is 0.9872 ± 0.01555 µg/mL.

Question: And the IC50 [2, 4]?
Answer: The IC50 was 0.916 ± 0.238 µg/mL.

Question: What about the “RF (Schisandrin B)” value ([2]; K562/adr) of the same molecule?
Answer: Its value is 6.2.

Question: And the “RF (verapamil)” value ([2]; K562/adr)?
Answer: Its value is 10.51.

Question: What about the “IC50 Schisandrin B” value ([2]; K562/adr) of the same molecule?
Answer: The value was 0.1486 ± 0.0554 µg/mL.

Question: And the IC50 verapamil ([2]; K562/adr)?
Answer: The IC50 verapamil was 0.0872 ± 0.0236 µg/mL.

Question: What about the IC50 (K562/vcr; [5]) of the same molecule?
Answer: Its IC50 is > 20 µg/mL.

Question: What about the “RF (Reversal Folds)” value (K562/vcr) of the same molecule?
Answer: The value was >14.9.

Question: What about the “IC50 Schisandrin B” value (K562/vcr) of the same molecule?
Answer: Its value is 1.34 ± 0.08 µg/mL.

From US20050119337A1, “Methods of application of Schisandrin B in the preparation of anticancer medications” (priority 2003, published 2005)
